From ChEMBL document CHEMBL3044635, “Effect of propiconazole and difenoconazole on the control of anthracnose of chilli fruits caused by Colletotrichum capsici” (Crop Prot, 2006) come the findings set out here.

A value given as a limit tells only on which side of the number the result lay.

For data set [1], the system named is Colletotrichum truncatum. Put plainly: Fungicidal activity against Colletotrichum capsici assessed as inhibition of mycelial growth. In kind it is functional.
Data set [2] relates to Colletotrichum truncatum. Put plainly: Fungicidal activity against Colletotrichum capsici assessed as spore germination at 0.5 ug/ml after 48 to 96 hr (reference value: 70.2 CFU). In kind it is functional.
The test system of data set [3] is Colletotrichum truncatum. The experiment in a line: Fungicidal activity against Colletotrichum capsici infected chilli plant assessed as fruit length at 0.1% applied as spray on day 10 post inoculation and twice every 20 days measured on day 155 post sowing in green house conditions (reference value: 6.8 to 7 cm). In kind it is functional.
Data set [4] concerns Colletotrichum truncatum. Put plainly: Fungicidal activity against Colletotrichum capsici assessed as linear growth at 50 ug/ml incubated 16 hr photoperiod for 20 days (reference value: 90 mm). In kind it is functional.
Data set [5] concerns Colletotrichum truncatum. Put plainly: Fungicidal activity against Colletotrichum capsici assessed as mycelial biomass at 50 ug/ml incubated 16 hr photoperiod for 20 days (reference value: 675 mg). In kind it is functional.
The subject of data set [6] is Colletotrichum truncatum. Put plainly: Fungicidal activity against Colletotrichum capsici assessed as sporulation at 10 ug/ml incubated 16 hr photoperiod for 20 days by haemocytometer (reference value: 0.081 x 10^6 ml'-1). In kind it is functional.
Data set [7] concerns Colletotrichum truncatum. Put plainly: Fungicidal activity against Colletotrichum capsici infected chilli plant assessed as percent disease index at 0.1% applied as spray on day 10 post inoculation and twice every 20 days measured on day 155 post sowing in field conditions (reference value: 51 to 56.5%). In kind it is functional.
Data set [8] has as its system Colletotrichum truncatum. Put plainly: Fungicidal activity against Colletotrichum capsici assessed as sporulation at 50 ug/ml incubated 16 hr photoperiod for 20 days by haemocytometer (reference value: 0.081 x 10^6 ml'-1). In kind it is functional.
The test system of data set [9] is Colletotrichum truncatum. The experiment in a line: Fungicidal activity against Colletotrichum capsici assessed as linear growth at 5 ug/ml incubated 16 hr photoperiod for 20 days (reference value: 90 mm). In kind it is functional.
Data set [10] deals with Colletotrichum truncatum. The experiment in a line: Fungicidal activity against Colletotrichum capsici assessed as reduction of pectin trans-eliminase production at 1 ug/ml incubated for 10 days measured up to 120 min by Ostwald-Fenske viscometric analysis (reference value: 38.5%). In kind it is functional. On the set-up: scale not given: the % may be the effect or the level left.

The test system of data set [11] is Colletotrichum truncatum. The experiment in a line: Fungicidal activity against Colletotrichum capsici assessed as inhibition of spore germination at 0.1 ug/ml after 48 to 96 hr relative to control. In kind it is functional.
For data set [12], the system named is Colletotrichum truncatum. The experiment in a line: Fungicidal activity against Colletotrichum capsici infected chilli plant assessed as fruit yield measured per plot at 0.1% applied as spray on day 10 post inoculation and twice every 20 days measured on day 155 post sowing in field conditions (reference value: 8.25 to 9.3 kg). In kind it is functional.
Data set [13] concerns Colletotrichum truncatum. The experiment in a line: Fungicidal activity against Colletotrichum capsici assessed as mycelial biomass at 25 ug/ml incubated 16 hr photoperiod for 20 days (reference value: 675 mg). In kind it is functional.
The test system of data set [14] is Colletotrichum truncatum. The experiment in a line: Fungicidal activity against Colletotrichum capsici assessed as mycelial biomass at 10 ug/ml incubated 16 hr photoperiod for 20 days (reference value: 675 mg). In kind it is functional.
For data set [15], the system named is Colletotrichum truncatum. Put plainly: Fungicidal activity against Colletotrichum capsici assessed as sporulation at 5 ug/ml incubated 16 hr photoperiod for 20 days by haemocytometer (reference value: 0.081 x 10^6 ml'-1). In kind it is functional.
In data set [16] the test system is Colletotrichum truncatum. Put plainly: Fungicidal activity against Colletotrichum capsici assessed as linear growth at 0.5 ug/ml incubated 16 hr photoperiod for 20 days (reference value: 90 mm). In kind it is functional.
In data set [17] the test system is Colletotrichum truncatum. The experiment in a line: Fungicidal activity against Colletotrichum capsici infected chilli plant assessed as fruit mass measured per pot at 0.1% applied as spray on day 10 post inoculation and twice every 20 days measured on day 155 post sowing in green house conditions (reference value: 85.3 to 94.5 g). In kind it is functional.
Data set [18] deals with Colletotrichum truncatum. The experiment in a line: Fungicidal activity against Colletotrichum capsici assessed as sporulation at 1 ug/ml incubated 16 hr photoperiod for 20 days by haemocytometer (reference value: 0.081 x 10^6 ml'-1). In kind it is functional.
Data set [19] concerns Colletotrichum truncatum. The experiment in a line: Fungicidal activity against Colletotrichum capsici assessed as spore germination at 50 ug/ml after 48 to 96 hr (reference value: 70.2 CFU). In kind it is functional.
For data set [20], the system named is Colletotrichum truncatum. The experiment in a line: Fungicidal activity against Colletotrichum capsici infected chilli plant assessed as fruit length measured per plot at 0.1% applied as spray on day 10 post inoculation and twice every 20 days measured on day 155 post sowing in field conditions (reference value: 8 to 8.7 cm). In kind it is functional.
Data set [21] relates to Colletotrichum truncatum. The experiment in a line: Fungicidal activity against Colletotrichum capsici assessed as reduction of polygalacturonase trans-eliminase production at 1 ug/ml incubated for 10 days measured up to 120 min by Ostwald-Fenske viscometric analysis (reference value: 40.8%). In kind it is functional. Further details: scale not given: the % may be the effect or the level left.

In data set [22] the test system is Colletotrichum truncatum. Put plainly: Fungicidal activity against Colletotrichum capsici assessed as spore germination at 10 ug/ml after 48 to 96 hr (reference value: 70.2 CFU). In kind it is functional.
Data set [23] relates to Colletotrichum truncatum. Put plainly: Fungicidal activity against Colletotrichum capsici assessed as linear growth at 1 ug/ml incubated 16 hr photoperiod for 20 days (reference value: 90 mm). In kind it is functional.
The subject of data set [24] is Colletotrichum truncatum. The experiment in a line: Fungicidal activity against Colletotrichum capsici assessed as spore germination at 1 ug/ml after 48 to 96 hr (reference value: 70.2 CFU). In kind it is functional.
Data set [25] concerns Colletotrichum truncatum. The experiment in a line: Fungicidal activity against Colletotrichum capsici infected chilli plant assessed as percent disease index at 0.1% applied as spray on day 10 post inoculation and twice every 20 days measured on day 155 post sowing in green house conditions (reference value: 62.5 to 68.6%). In kind it is functional.
For data set [26], the system named is Colletotrichum truncatum. Put plainly: Fungicidal activity against Colletotrichum capsici assessed as spore germination at 25 ug/ml after 48 to 96 hr (reference value: 70.2 CFU). In kind it is functional.
The subject of data set [27] is Colletotrichum truncatum. The experiment in a line: Fungicidal activity against Colletotrichum capsici assessed as sporulation at 25 ug/ml incubated 16 hr photoperiod for 20 days by haemocytometer (reference value: 0.081 x 10^6 ml'-1). In kind it is functional.
For data set [28], the system named is Colletotrichum truncatum. The experiment in a line: Fungicidal activity against Colletotrichum capsici assessed as spore germination at 5 ug/ml after 48 to 96 hr (reference value: 70.2 CFU). In kind it is functional.
The test system of data set [29] is Colletotrichum truncatum. Put plainly: Fungicidal activity against Colletotrichum capsici assessed as linear growth at 0.1 ug/ml incubated 16 hr photoperiod for 20 days (reference value: 90 mm). In kind it is functional.
Data set [30] has as its system Colletotrichum truncatum. The experiment in a line: Fungicidal activity against Colletotrichum capsici assessed as linear growth at 10 ug/ml incubated 16 hr photoperiod for 20 days (reference value: 90 mm). In kind it is functional.
In data set [31] the test system is Colletotrichum truncatum. Put plainly: Fungicidal activity against Colletotrichum capsici assessed as reduction of polygalacturonase production at 1 ug/ml incubated for 10 days measured up to 120 min by Ostwald-Fenske viscometric analysis (reference value: 45.3%). In kind it is functional. Further details: scale not given: the % may be the effect or the level left.

In data set [32] the test system is Capsicum annuum. Put plainly: Phytotoxicity in Capsicum annuum (pepper) at 0.1% applied as spray. In kind it is organism-based. The note with it: in vivo, other.
Data set [33] concerns Colletotrichum truncatum. The experiment in a line: Fungicidal activity against Colletotrichum capsici assessed as sporulation at 0.5 ug/ml incubated 16 hr photoperiod for 20 days by haemocytometer (reference value: 0.081 x 10^6 ml'-1). In kind it is functional.
The subject of data set [34] is Colletotrichum truncatum. Put plainly: Fungicidal activity against Colletotrichum capsici assessed as mycelial biomass at 0.1 ug/ml incubated 16 hr photoperiod for 20 days (reference value: 675 mg). In kind it is functional.
Data set [35] has as its system Colletotrichum truncatum. The experiment in a line: Fungicidal activity against Colletotrichum capsici assessed as linear growth at 25 ug/ml incubated 16 hr photoperiod for 20 days (reference value: 90 mm). In kind it is functional.
In data set [36] the test system is Colletotrichum truncatum. Put plainly: Fungicidal activity against Colletotrichum capsici assessed as mycelial biomass at 0.5 ug/ml incubated 16 hr photoperiod for 20 days (reference value: 675 mg). In kind it is functional.
For data set [37], the system named is Colletotrichum truncatum. Put plainly: Fungicidal activity against Colletotrichum capsici assessed as mycelial biomass at 5 ug/ml incubated 16 hr photoperiod for 20 days (reference value: 675 mg). In kind it is functional.
The subject of data set [38] is Colletotrichum truncatum. The experiment in a line: Fungicidal activity against Colletotrichum capsici assessed as mycelial biomass at 1 ug/ml incubated 16 hr photoperiod for 20 days (reference value: 675 mg). In kind it is functional.
The subject of data set [39] is Colletotrichum truncatum. Put plainly: Fungicidal activity against Colletotrichum capsici assessed as sporulation at 0.1 ug/ml incubated 16 hr photoperiod for 20 days by haemocytometer (reference value: 0.081 x 10^6 ml'-1). In kind it is functional.

Consider `CC(C)(C)C(O)C(Oc1ccc(-c2ccccc2)cc1)n1cncn1` (configuration not stated) [BITERTANOL], for which the ED50 in [1] is given as less than 5 ugAi/ml.
For the compound `COC(=O)Nc1nc2ccccc2[nH]1` [CARBENDAZIM], the CFU is reported as 32.2 in data set [2]; 0 in [19]; 0 in data set [22]; 10.3 in data set [24]; 0 in data set [26]; 3.2 in [28]. The Activity in [3] was 7.3 cm; in data set [4], 9 mm; in data set [5], 0 mg; in [6], 0 ×10⁶ /ml; in data set [8] it was 0 ×10⁶ /ml; in data set [9] it was 39.5 mm. The Activity came out at 18% in [10]; 46 mg in [13]; 82 mg in data set [14]; 1.03 ×10⁶ /ml in data set [15]; 66.3 mm in data set [16]; 1.49 ×10⁶ /ml in data set [18]. The Activity in data set [20] came out at 8.5 cm; in data set [21], 19%; in data set [23] it was 45.8 mm; in data set [27], 0 ×10⁶ /ml; in [29], 85.5 mm; in [30], 21.3 mm. Further, the Activity in [31] was 13.5%; in data set [32], “Non-toxic”; in [33], 2.42 ×10⁶ /ml; in [34], 570 mg; in [35], 9 mm; in data set [36] it was 405 mg. Further, the Activity was found to be 186 mg in data set [37], 304 mg in data set [38] and 3.53 ×10⁶ /ml in [39]. Moreover, the PDI amounted to 27.5% in data set [7] and 27.7% in data set [25]. The inhibition at 0.1 µg/mL in [11] stood at 35%. The figures for the Crop_yield in data set [12] and in data set [17] were 11.25 kg and 120.8 g, respectively.
With `C=CCOC(Cn1ccnc1)c1ccc(Cl)cc1Cl` (configuration not stated) [ENILCONAZOLE], the ED50 in data set [1] is less than 5 ugAi/ml.
As for `CCCCC(O)(Cn1cncn1)c1ccc(Cl)cc1Cl` (configuration not stated) [HEXACONAZOLE], in [1], the ED50 is listed as less than 5 ugAi/ml.
Take `c1ccc2[nH]c(-c3cscn3)nc2c1` [THIABENDAZOLE]: the ED50 in data set [1] is less than 5 ugAi/ml.

The inhibition is the percentage by which the read-out fell short of the control.
